Data from ChEMBL document CHEMBL5674860, “Optimized Dual-Glo Assay to identify co-culture-induced drug vulnerabilities in 3D CRC models” (2024).

Columns and labels:
Assay type in all cases: functional, Homo sapiens
Parameters in all cases: dose or concentration left out as unconfirmed
[1] = test system: Colon cancer organoid; experiment: Optimized Dual-Glo assay to identify co-culture induced drug vulnerabilities using donated chemical probes and chemogenomics kinase set in O14 CRC organoid and F14 CAF mono and co-culture. […] Cell viability is reported both mono and co-culture models.
[2] = test system: Colon cancer organoid; experiment: Optimized Dual-Glo assay to identify co-culture induced drug vulnerabilities using donated chemical probes and chemogenomics kinase set in O20 CRC organoid and F20 CAF mono and co-culture. […] Cell viability is reported both mono and co-culture models.
[3] = test system: Colon cancer organoid; experiment: Optimized Dual-Glo assay to identify co-culture induced drug vulnerabilities using donated chemical probes and chemogenomics kinase set in O06 CRC organoid and F06 CAF mono and co-culture. […] Cell viability is reported both mono and co-culture models.
[4] = Culture type Co-Culture, Transduced with Lucferase2-P2A-EGFP lentivirus
[5] = Culture type Co-Culture, Transduced with Renilla-dsRed lentivirus
[6] = Culture type Mono-Culture, Transduced with Lucferase2-P2A-EGFP lentivirus
[7] = Culture type Mono-Culture, Transduced with Renilla-dsRed lentivirus

| SMILES | Cell Viability [1, 4] [%] | Cell Viability [1, 5] [%] | Cell Viability [1, 6] [%] | Cell Viability [1, 7] [%] | Cell Viability [2, 4] [%] | Cell Viability [2, 5] [%] | Cell Viability [2, 6] [%] | Cell Viability [2, 7] [%] | Cell Viability [3, 4] [%] | Cell Viability [3, 5] [%] | Cell Viability [3, 6] [%] | Cell Viability [3, 7] [%] |
| --- | --- | --- | --- | --- | --- | --- | --- | --- | --- | --- | --- | --- |
| CN(C)C(=O)Cn1cc(-c2nc(C3(c4ccc(-c5cnc(N)nc5)cc4)CC3)no2)cn1 [BI 0153] | 85.1631 | 102.426 | 124.477 | 95.7431 | 119.435 | 91.9766 | 120.102 | 113.624 | 114.895 | 116.335 | 110.704 | 85.1331 |
| COc1ccc2c(O[C@@H]3C[C@H]4C(=O)N[C@]5(C(=O)O)CC5/C=C\CCCCC[C@H](NC(=O)OC5CCCC5)C(=O)N4C3)cc(-c3csc(NC(=O)C(C)C)n3)nc2c1C (stereo partly specified) [BI 1230] | 105.071 | 113.929 | 106.581 | 104.774 | 95.5192 | 162.279 | 102.506 | 120.15 | 113.549 | 148.301 | 94.169 | 100.65 |
| O=C(N[C@H]1CCCCC/C=C\C2C[C@@]2(C(=O)O)NC(=O)[C@@H]2C[C@@H](Oc3ccncc3)CN2C1=O)OC1CCCC1 (stereo partly specified) [BI 1675] | 104.235 | 108.175 | 94.4705 | 89.8487 | 103.036 | 110.731 | 113.647 | 94.6025 | 118.509 | 153.84 | 83.7502 | 91.3607 |
| CCOCCn1cc(C(=O)Nc2ccc(-n3nc(-c4cccnc4)cc3C(F)(F)F)cn2)ccc1=O [BI 1935] | 119.66 | 103.733 | 123.828 | 100.697 | 76.3275 | 148.205 | 94.4512 | 98.9549 | 92.9458 | 113.636 | 108.149 | 105.749 |
| C[C@H](NC(=O)c1cnc2n1[C@](C)(Cc1ccc(C#N)cc1)C(=O)N2c1cc(Cl)c(F)c(Cl)c1)C(=O)NC1(c2ccccn2)CC1 [BI 1950] | 114.581 | 100.802 | 131.753 | 112.137 | 121.807 | 97.0159 | 112.646 | 94.255 | 123.241 | 151.567 | 111.279 | 104.666 |
| CC(C)(C#Cc1ccc(NC(=O)COc2ccccc2C(=O)c2ccccc2)c(Cl)c1)C(=O)O [BI 2439] | 91.5107 | 105.147 | 118.998 | 103.818 | 147.968 | 100.148 | 97.854 | 121.686 | 98.7582 | 98.9732 | 147.342 | 109.263 |
| Cc1c(NC(=O)COc2ccc(Cl)cc2C(=O)c2cc(F)cc(C(F)(F)F)c2)ccc(C(=O)O)c1F [BI 2540] | 79.1363 | 91.7704 | 120.435 | 101.06 | 66.158 | 145.555 | 86.1051 | 111.497 | 131.143 | 97.0984 | 110.069 | 102.946 |
| O=C(NC[C@@H]1[C@H]2CN(C(=O)OCc3cc(C(F)(F)F)cc(C(F)(F)F)c3)C[C@@H]12)c1ccc2[nH]nnc2c1 [BI 2545] | 75.1961 | 105.32 | 137.829 | 80.7794 | 135.058 | 115.933 | 103.58 | 122.062 | 124.688 | 144.467 | 99.0945 | 89.0013 |
| Cc1nccc(COC(=O)N2C[C@@H]3[C@@H](CNC(=O)c4ccc5[nH]nnc5c4)[C@@H]3C2)n1 [BI 3017] | 93.935 | 119.587 | 137.729 | 94.2589 | 107.028 | 99.2728 | 143.356 | 100.924 | 136.883 | 128.292 | 95.2629 | 74.0867 |
| Cn1nc(C(=O)NCc2ccc(C(=O)O)cc2)cc1-c1ccc2[nH]ccc2c1 [BI 4395] | 58.8492 | 93.1183 | 115.617 | 91.6294 | 100.657 | 92.7545 | 82.9051 | 93.5086 | 92.221 | 114.828 | 85.3335 | 79.5775 |
| Cn1c(C2(NC(=O)c3ccc(NCC4CCCCC4)nc3)CCC2)nc2ccc(/C=C/C(=O)O)cc21 [BI 7656] | 115.178 | 112.206 | 113.679 | 103.836 | 93.1126 | 134.723 | 113.339 | 113.787 | 130.07 | 105.71 | 133.812 | 120.577 |
| C[C@@]1(Cc2ccc(C#N)cc2)C(=O)N(c2cc(Cl)cc(Cl)c2)c2ncc(C(=O)NC3(c4nc(C5CCC5)no4)CC3)n21 [BI 9446] | 88.6006 | 103.948 | 113.423 | 106.796 | 72.3076 | 136.535 | 95.8483 | 102.524 | 85.7019 | 100.079 | 74.4511 | 102.688 |
| CC(=O)N1CCC(c2ccc(C(=O)NC(=N)N)cc2C(F)(F)F)CC1 [BI 9627] | 82.2007 | 132.273 | 72.3529 | 98.3882 | 96.0735 | 101.417 | 111.956 | 89.7357 | 150.087 | 189.046 | 112.79 | 98.1409 |
